Values quoted from earlier work, collected in PubChem BioAssay AID1259409 (Chemical Carcinogenesis Research Information System (CCRIS), 2018).
Several values for one entry are separate records, joined by “and”; a condition that tells them apart may be missing. Equal entries are not always repeated.

System: rodent chemically induced tumor inhibition, incidence and multiplicity
Assay: CCRIS tumor inhibitor studies
Settings: Route [Inhibitor]: ORAL, Species: RAT

SMILES: O=C(O)c1ccc(O)c(O)c1
- tumour outcome (control, treated, inhibition, significance) (Carcinogen: 2-AMINO-1-METHYL-6-PHENYLIMIDAZO[4,5-B]PYRIDINE [105650-23-5], Dose [Inhibitor]: 2,000 PPM IN DIET FOR 4 WK BEGINNING WK PRIOR TO FIRST CARCINOGEN DOSE (STUDY DURATION: 25 WK), Strain/Sex: SPRAGUE-DAWLEY/FEMALE, Target Tissue: Type of Lesion: MAMMARY GLAND: FIBROADENOMA OR DUCTAL CARCINOMA, Dose [Carcinogen]: 85 MG/KG BW 2X/WK FOR 4 WK (STUDY DURATION: 25 WK), Promoter: NONE): 63%, 59%, 6%, not significant
- tumour outcome (control, treated, inhibition, significance) (Carcinogen: 4-NITROQUINOLINE-1-OXIDE, 56-57-5, Dose [Inhibitor]: 0, 500 PPM IN DIET FOR 10 WK BEGINNING 1 WK PRIOR TO CARCINOGEN TREATMENT (STUDY DURATION: 32 WK), Strain/Sex: F344/MALE, Target Tissue: Type of Lesion: TONGUE: PAPILLOMA, Dose [Carcinogen]: 20 PPM IN DRINKING WATER FOR 8 WK, Promoter: NONE USED): 3/19 (16%), 3/20 (15%), 6%, not significant and 16%, 15%, 6%, not significant
- tumour outcome (control, treated, inhibition, significance) (Carcinogen: 4-NITROQUINOLINE-1-OXIDE, 56-57-5, Dose [Inhibitor]: 0, 500 PPM IN DIET FOR 22 WK BEGINNING 1 WK POST CARCINOGEN TREATMENT (STUDY DURATION: 32 WK), Strain/Sex: F344/MALE, Target Tissue: Type of Lesion: TONGUE: PAPILLOMA, Dose [Carcinogen]: 20 PPM IN DRINKING WATER FOR 8 WK, Promoter: NONE USED): 3/19 (16%), 3/21 (14%), 13%, not significant and 16%, 14%, 13%, not significant
- tumour outcome (control, treated, inhibition, significance) (Carcinogen: 4-NITROQUINOLINE-1-OXIDE, 56-57-5, Dose [Inhibitor]: 0, 1000 PPM IN DIET FOR 10 WK BEGINNING 1 WK PRIOR TO CARCINOGEN TREATMENT (STUDY DURATION: 32 WK), Strain/Sex: F344/MALE, Target Tissue: Type of Lesion: TONGUE: PAPILLOMA, Dose [Carcinogen]: 20 PPM IN DRINKING WATER FOR 8 WK, Promoter: NONE USED): 3/19 (16%), 2/19 (11%), 31%, not significant and 16%, 11%, 31%, not significant
- tumour outcome (control, treated, inhibition, significance) (Carcinogen: 4-NITROQUINOLINE-1-OXIDE, 56-57-5, Dose [Inhibitor]: 0, 1000 PPM IN DIET FOR 22 WK BEGINNING 1 WK POST CARCINOGEN TREATMENT (STUDY DURATION: 32 WK), Strain/Sex: F344/MALE, Target Tissue: Type of Lesion: TONGUE: PAPILLOMA, Dose [Carcinogen]: 20 PPM IN DRINKING WATER FOR 8 WK, Promoter: NONE USED): 3/19 (16%), 4/19 (21%), -31%, not significant
- tumour outcome (control, treated, inhibition, significance) (Carcinogen: 4-NITROQUINOLINE-1-OXIDE, 56-57-5, Dose [Inhibitor]: 0, 2000 PPM IN DIET FOR 10 WK BEGINNING 1 WK PRIOR TO CARCINOGEN TREATMENT (STUDY DURATION: 32 WK), Strain/Sex: F344/MALE, Target Tissue: Type of Lesion: TONGUE: PAPILLOMA, Dose [Carcinogen]: 20 PPM IN DRINKING WATER FOR 8 WK, Promoter: NONE USED): 3/19 (16%), 2/21 (10%), 38%, not significant and 16%, 10%, 38%, not significant
- tumour outcome (control, treated, inhibition, significance) (Carcinogen: 4-NITROQUINOLINE-1-OXIDE, 56-57-5, Dose [Inhibitor]: 0, 2000 PPM IN DIET FOR 22 WK BEGINNING 1 WK POST CARCINOGEN TREATMENT (STUDY DURATION: 32 WK), Strain/Sex: F344/MALE, Target Tissue: Type of Lesion: TONGUE: PAPILLOMA, Dose [Carcinogen]: 20 PPM IN DRINKING WATER FOR 8 WK, Promoter: NONE USED): 3/19 (16%), 2/20 (10%), 38%, not significant and 16%, 10%, 38%, not significant
- tumour outcome (control, treated, inhibition, significance) (Carcinogen: AZOXYMETHANE, 24843-45-2, Dose [Inhibitor]: 0, 500 PPM IN DIET FOR 28 WK BEGINNING 1 WK POST CARCINOGEN TREATMENT (STUDY DURATION: 32 WK), Strain/Sex: F344/MALE, Target Tissue: Type of Lesion: COLON: ADENOMA, Dose [Carcinogen]: 15 MG/KG BW 1/WK FOR 3 WK, Promoter: NONE USED): 10%, 15%, -50%, not significant
- tumour outcome (control, treated, inhibition, significance) (Carcinogen: AZOXYMETHANE, 25843-45-2, Dose [Inhibitor]: 0, 250 PPM IN DIET FOR 4 WK BEGINNING 1 WK PRIOR TO CARCINOGEN TREATMENT (STUDY DURATION: 32 WK), Strain/Sex: F344/MALE, Target Tissue: Type of Lesion: COLON: ADENOCARCINOMA, Dose [Carcinogen]: 15 MG/KG BW 1/WK FOR 3 WK, Promoter: NONE USED): 75%, 40%, 47%, not significant
- tumour outcome (control, treated, inhibition, significance) (Carcinogen: AZOXYMETHANE, 25843-45-2, Dose [Inhibitor]: 0, 250 PPM IN DIET FOR 4 WK BEGINNING 1 WK PRIOR TO CARCINOGEN TREATMENT (STUDY DURATION: 32 WK), Strain/Sex: F344/MALE, Target Tissue: Type of Lesion: COLON: ADENOMA, Dose [Carcinogen]: 15 MG/KG BW 1/WK FOR 3 WK, Promoter: NONE USED): 10%, 5%, 50%, not significant
- tumour outcome (control, treated, inhibition, significance) (Carcinogen: AZOXYMETHANE, 25843-45-2, Dose [Inhibitor]: 0, 250 PPM IN DIET FOR 4 WK BEGINNING 1 WK PRIOR TO CARCINOGEN TREATMENT (STUDY DURATION: 32 WK), Strain/Sex: F344/MALE, Target Tissue: Type of Lesion: LARGE INTESTINE: ADENOCARCINOMA, Dose [Carcinogen]: 15 MG/KG BW 1/WK FOR 3 WK, Promoter: NONE USED): 15/20 (75%), 8/20 (40%), 47%, not significant
- tumour outcome (control, treated, inhibition, significance) (Carcinogen: AZOXYMETHANE, 25843-45-2, Dose [Inhibitor]: 0, 250 PPM IN DIET FOR 4 WK BEGINNING 1 WK PRIOR TO CARCINOGEN TREATMENT (STUDY DURATION: 32 WK), Strain/Sex: F344/MALE, Target Tissue: Type of Lesion: LARGE INTESTINE: ADENOMA, Dose [Carcinogen]: 15 MG/KG BW 1/WK FOR 3 WK, Promoter: NONE USED): 2/20 (10%), 1/20 (5%), 50%, not significant
- tumour outcome (control, treated, inhibition, significance) (Carcinogen: AZOXYMETHANE, 25843-45-2, Dose [Inhibitor]: 0, 250 PPM IN DIET FOR 4 WK BEGINNING 1 WK PRIOR TO CARCINOGEN TREATMENT (STUDY DURATION: 32 WK), Strain/Sex: F344/MALE, Target Tissue: Type of Lesion: SMALL INTESTINE: ADENOCARCINOMA, Dose [Carcinogen]: 15 MG/KG BW 1/WK FOR 3 WK, Promoter: NONE USED): 6/20 (30%), 7/20 (35%), -17%, not significant
- tumour outcome (control, treated, inhibition, significance) (Carcinogen: AZOXYMETHANE, 25843-45-2, Dose [Inhibitor]: 0, 250 PPM IN DIET FOR 4 WK BEGINNING 1 WK PRIOR TO CARCINOGEN TREATMENT (STUDY DURATION: 32 WK), Strain/Sex: F344/MALE, Target Tissue: Type of Lesion: SMALL INTESTINE: ADENOMA, Dose [Carcinogen]: 15 MG/KG BW 1/WK FOR 3 WK, Promoter: NONE USED): 1/20 (5%), 0/20 (0%), 100%, not significant
- tumour outcome (control, treated, inhibition, significance) (Carcinogen: AZOXYMETHANE, 25843-45-2, Dose [Inhibitor]: 0, 250 PPM IN DIET FOR 28 WK BEGINNING 1 WK POST CARCINOGEN TREATMENT (STUDY DURATION: 32 WK), Strain/Sex: F344/MALE, Target Tissue: Type of Lesion: COLON: ADENOCARCINOMA, Dose [Carcinogen]: 15 MG/KG BW 1/WK FOR 3 WK, Promoter: NONE USED): 75%, 40%, 47%, not significant
- tumour outcome (control, treated, inhibition, significance) (Carcinogen: AZOXYMETHANE, 25843-45-2, Dose [Inhibitor]: 0, 250 PPM IN DIET FOR 28 WK BEGINNING 1 WK POST CARCINOGEN TREATMENT (STUDY DURATION: 32 WK), Strain/Sex: F344/MALE, Target Tissue: Type of Lesion: COLON: ADENOMA, Dose [Carcinogen]: 15 MG/KG BW 1/WK FOR 3 WK, Promoter: NONE USED): 10%, 20%, -100%, not significant
- tumour outcome (control, treated, inhibition, significance) (Carcinogen: AZOXYMETHANE, 25843-45-2, Dose [Inhibitor]: 0, 250 PPM IN DIET FOR 28 WK BEGINNING 1 WK POST CARCINOGEN TREATMENT (STUDY DURATION: 32 WK), Strain/Sex: F344/MALE, Target Tissue: Type of Lesion: LARGE INTESTINE: ADENOCARCINOMA, Dose [Carcinogen]: 15 MG/KG BW 1/WK FOR 3 WK, Promoter: NONE USED): 15/20 (75%), 8/20 (40%), 47%, not significant
- tumour outcome (control, treated, inhibition, significance) (Carcinogen: AZOXYMETHANE, 25843-45-2, Dose [Inhibitor]: 0, 250 PPM IN DIET FOR 28 WK BEGINNING 1 WK POST CARCINOGEN TREATMENT (STUDY DURATION: 32 WK), Strain/Sex: F344/MALE, Target Tissue: Type of Lesion: LARGE INTESTINE: ADENOMA, Dose [Carcinogen]: 15 MG/KG BW 1/WK FOR 3 WK, Promoter: NONE USED): 2/20 (10%), 4/20 (20%), -100%, not significant
- tumour outcome (control, treated, inhibition, significance) (Carcinogen: AZOXYMETHANE, 25843-45-2, Dose [Inhibitor]: 0, 250 PPM IN DIET FOR 28 WK BEGINNING 1 WK POST CARCINOGEN TREATMENT (STUDY DURATION: 32 WK), Strain/Sex: F344/MALE, Target Tissue: Type of Lesion: SMALL INTESTINE: ADENOCARCINOMA, Dose [Carcinogen]: 15 MG/KG BW 1/WK FOR 3 WK, Promoter: NONE USED): 6/20 (30%), 5/20 (25%), 17%, not significant
- tumour outcome (control, treated, inhibition, significance) (Carcinogen: AZOXYMETHANE, 25843-45-2, Dose [Inhibitor]: 0, 250 PPM IN DIET FOR 28 WK BEGINNING 1 WK POST CARCINOGEN TREATMENT (STUDY DURATION: 32 WK), Strain/Sex: F344/MALE, Target Tissue: Type of Lesion: SMALL INTESTINE: ADENOMA, Dose [Carcinogen]: 15 MG/KG BW 1/WK FOR 3 WK, Promoter: NONE USED): 1/20 (5%), 0/20 (0%), 100%, not significant
